According to article PMC7345095, “New Synthetic Nitro-Pyrrolomycins as Promising Antibacterial and Anticancer Agents” (Antibiotics, 2020):
Converted amounts (≈) assume the structure as drawn.

system: Pseudomonas aeruginosa ATCC 10145; assay: Kill curve assay (MBC), planktonic cells; assay type: cell-based; settings: Pseudomonas aeruginosa, ATCC10145; minimal bactericidal concentration, planktonic cells, 24 h challenge, LB medium; read-out: MBC P. aeruginosa
Description: (§1) Kill curve assays were performed to test the antimicrobial efficacy of pyrrolomycins (i.e., 1, 2, 5a, 5b, 5c, 5d), as well as that of the natural PM-C against the indicator pathogen Staphylococcus aureus ATCC 25923 and Pseudomonas aeruginosa ATCC 10145 strains. Briefly, a single colony of either S. aureus or P. aeruginosa strains was picked up and pre-cultivated (ca. 16 h) at 37 °C with shacking (160 rpm) in Luria Bertani medium (hereinafter named as LB and composed of (g L^−1): sodium chloride, 10; yeast extract, 5; tryptone, 10). The same medium was solidified by adding 15 g L^−1 of bacteriological agar when needed. Bacterial cells were then inoculated (1% v/v) in LB medium amended with increasing concentrations—ranging from 0 to 100 μM as initial concentration—of each pyrrolomycin tested, challenging the cultures for 24 h and incubating them as reported above. The actual number of viable colony forming units per milliliter of culture (CFU mL^−1) of each bacterial strain, who survived the challenge exerted by pyrrolomycins, was evaluated through the spot plate count method and compared to unchallenged cultures, as reported elsewhere. The data are reported as average values (n = 3) of CFU mL^−1 in the logarithmic (Log10) scale with standard deviation (SD). Evaluation of the MIC of PM-5c, and -5d against S. aureus and of PM-5d against P. aeruginosa was performed by incubating 1% (v/v) of an overnight bacterial suspension in LB medium in presence of increasing concentrations of the PMs. As a control, MIC of PM-C was measured. At the time of the inoculum and after overnight challenge, the absorbance of the cultures at 600 nm, which is an indirect way to measure the bacterial cell growth, was registered using a Spark™ 10 M multimode microplate reader measuring. The experiment was carried out in triplicate, being the absorbance corrected by subtracting that of the culture medium amended with the corresponding PM tested.

SMILES	MBC
O=C(c1cc(Cl)c([N+](=O)[O-])[nH]1)c1cc(Cl)cc(Cl)c1O [PM 5b, (4-Chloro-5-nitro-1H-pyrrol-2-yl)(3,5-dichloro-2-hydroxyphenyl)methanone]	> 100 µM
O=C(c1cc(Br)c([N+](=O)[O-])[nH]1)c1cc(Cl)cc(Cl)c1O [PM 5c, (4-Bromo-5-nitro-1H-pyrrol-2-yl)(3,5-dichloro-2-hydroxyphenyl)methanone]	> 100 µM

same assay, conditions: highest concentration tested 100 μM, 24 h

SMILES	log reduction in the number of viable CFUs, P. aeruginosa
O=C(c1cc(Cl)c([N+](=O)[O-])[nH]1)c1cc(Cl)cc(Cl)c1O [PM 5b, (4-Chloro-5-nitro-1H-pyrrol-2-yl)(3,5-dichloro-2-hydroxyphenyl)methanone]	2.7 log
O=C(c1cc(Br)c([N+](=O)[O-])[nH]1)c1cc(Cl)cc(Cl)c1O [PM 5c, (4-Bromo-5-nitro-1H-pyrrol-2-yl)(3,5-dichloro-2-hydroxyphenyl)methanone]	2.2 log

same assay, conditions: ratio of IC50 of normal hTERT-RPE-1 to MBC of P. aeruginosa; first value of the cell

SMILES	B-SI (Bacterial Selectivity Index), P. aeruginosa
O=C(c1cc(Cl)c([N+](=O)[O-])[nH]1)c1cc(Cl)cc(Cl)c1O [PM 5b, (4-Chloro-5-nitro-1H-pyrrol-2-yl)(3,5-dichloro-2-hydroxyphenyl)methanone]	> 0.6
O=C(c1cc(Br)c([N+](=O)[O-])[nH]1)c1cc(Cl)cc(Cl)c1O [PM 5c, (4-Bromo-5-nitro-1H-pyrrol-2-yl)(3,5-dichloro-2-hydroxyphenyl)methanone]	> 0.3

system: Staphylococcus aureus ATCC 25923; assay: Kill curve assay (MBC), planktonic cells; assay type: cell-based; settings: Staphylococcus aureus, ATCC25923; minimal bactericidal concentration, planktonic cells, 24 h challenge, LB medium; read-out: MBC S. aureus
Description: as §1

SMILES	MBC
O=C(c1cc(Cl)c([N+](=O)[O-])[nH]1)c1cc(Cl)cc(Cl)c1O [PM 5b, (4-Chloro-5-nitro-1H-pyrrol-2-yl)(3,5-dichloro-2-hydroxyphenyl)methanone]	20 µM (≈ 6.71 µg/mL)
O=C(c1cc(Br)c([N+](=O)[O-])[nH]1)c1cc(Cl)cc(Cl)c1O [PM 5c, (4-Bromo-5-nitro-1H-pyrrol-2-yl)(3,5-dichloro-2-hydroxyphenyl)methanone]	1 µM (≈ 0.38 µg/mL)

same assay, conditions: fold versus PM-1

SMILES	fold more active than the synthetic PM-1 (S. aureus)
O=C(c1cc(Br)c([N+](=O)[O-])[nH]1)c1cc(Cl)cc(Cl)c1O [PM 5c, (4-Bromo-5-nitro-1H-pyrrol-2-yl)(3,5-dichloro-2-hydroxyphenyl)methanone]	5

same assay, conditions: fold versus PM-C

SMILES	times more active than PM-C (S. aureus MBC)
O=C(c1cc(Br)c([N+](=O)[O-])[nH]1)c1cc(Cl)cc(Cl)c1O [PM 5c, (4-Bromo-5-nitro-1H-pyrrol-2-yl)(3,5-dichloro-2-hydroxyphenyl)methanone]	90

same assay, conditions: from bacterial selectivity index, S. aureus

SMILES	times less toxic than PM-C (bacterial SI)
O=C(c1cc(Br)c([N+](=O)[O-])[nH]1)c1cc(Cl)cc(Cl)c1O [PM 5c, (4-Bromo-5-nitro-1H-pyrrol-2-yl)(3,5-dichloro-2-hydroxyphenyl)methanone]	30

same assay, conditions: minimal bactericidal concentration, planktonic cells, 24 h challenge, LB medium; read-out: MBC S. aureus

SMILES	MBC
O=C(c1cc(Cl)c([N+](=O)[O-])[nH]1)c1cc(Cl)cc(Cl)c1O [PM 5b, (4-Chloro-5-nitro-1H-pyrrol-2-yl)(3,5-dichloro-2-hydroxyphenyl)methanone]	20 µM (≈ 6.71 µg/mL)
O=C(c1cc(Br)c([N+](=O)[O-])[nH]1)c1cc(Cl)cc(Cl)c1O [PM 5c, (4-Bromo-5-nitro-1H-pyrrol-2-yl)(3,5-dichloro-2-hydroxyphenyl)methanone]	1 µM (≈ 0.38 µg/mL)

same assay, conditions: ratio of IC50 of normal hTERT-RPE-1 to MBC of S. aureus; second value of the cell

SMILES	B-SI (Bacterial Selectivity Index), S. aureus
O=C(c1cc(Cl)c([N+](=O)[O-])[nH]1)c1cc(Cl)cc(Cl)c1O [PM 5b, (4-Chloro-5-nitro-1H-pyrrol-2-yl)(3,5-dichloro-2-hydroxyphenyl)methanone]	2.8
O=C(c1cc(Br)c([N+](=O)[O-])[nH]1)c1cc(Cl)cc(Cl)c1O [PM 5c, (4-Bromo-5-nitro-1H-pyrrol-2-yl)(3,5-dichloro-2-hydroxyphenyl)methanone]	29.7

system: S. aureus; assay: MIC by absorbance at 600 nm after overnight challenge; assay type: cell-based; settings: Staphylococcus aureus, LB medium, absorbance 600 nm
Description: as §1

SMILES	MIC
O=C(c1cc(Br)c([N+](=O)[O-])[nH]1)c1cc(Cl)cc(Cl)c1O [PM 5c, (4-Bromo-5-nitro-1H-pyrrol-2-yl)(3,5-dichloro-2-hydroxyphenyl)methanone]	0.5 µM (≈ 0.19 µg/mL)

system: HCT116 colon cancer cell line; assay: MTT viability assay; assay type: cell-based; settings: Homo sapiens, HCT-116, 48 h, MTT, 48 h of treatment
Description: (§2) The HCT116 colon cancer cell line (ATCC® CCL-247™), the MCF 7 breast cancer cell line (ATCC® HTB-22™) and the hTERT RPE-1 -immortalized retinal pigment epithelial cell line (ATCC® CRL-4000™) used in this study were cultured in DMEM medium (Gibco, Paisley, UK), supplemented with 1% glutamine, 10% heat-inactivated fetal bovine serum and 100U/mL penicillin and 100 μg/mL streptomycin, as already described, and maintained at 37 °C and 5% CO2.
(§3) Cells were plated at 5 × 10^3 cells/well in 96-well plates and incubated for 24 h prior to treatment for further 48 h of different concentrations of PMs. After incubation, a sample of 20 μL of Thiazolyl Blue Tetrazolium Bromide (5 mg mL^−1) in PBS was added to each well and cultured for 2h at 37 °C in CO2 incubator. After removing the medium containing MTT and three washes with PBS, 100 μL of warm DMSO was added to each well to dissolve formazan. Samples were shaken for 10 min, at room temperature in the dark, and the absorbance was recorded at 570 nm using a microplate reader (Spark® 20M Tecan Trading AG, Switzerland). Percentage of cell viability with respect to untreated control cells (vehicle control) was calculated after subtraction of the blank. The IC50 values, that is the concentration necessary to inhibit the 50% of cell growth, was calculated using a dose-response model, obtained from sigmoidal fitting of response curves of percent inhibition versus logarithmic concentration of PMs, using Graph Pad Prism software. Each result represents the mean value of three different experiments performed in triplicate.

SMILES	IC50
O=C(c1cc(Cl)c([N+](=O)[O-])[nH]1)c1cc(Cl)cc(Cl)c1O [PM 5b, (4-Chloro-5-nitro-1H-pyrrol-2-yl)(3,5-dichloro-2-hydroxyphenyl)methanone]	18.7 ± 3.81 µM
O=C(c1cc(Br)c([N+](=O)[O-])[nH]1)c1cc(Cl)cc(Cl)c1O [PM 5c, (4-Bromo-5-nitro-1H-pyrrol-2-yl)(3,5-dichloro-2-hydroxyphenyl)methanone]	7.64 ± 1.88 µM

same assay, conditions: MTT, 48 h of treatment

SMILES	IC50
O=C(c1cc(Cl)c([N+](=O)[O-])[nH]1)c1cc(Cl)cc(Cl)c1O [PM 5b, (4-Chloro-5-nitro-1H-pyrrol-2-yl)(3,5-dichloro-2-hydroxyphenyl)methanone]	18.7 ± 3.8 µM
O=C(c1cc(Br)c([N+](=O)[O-])[nH]1)c1cc(Cl)cc(Cl)c1O [PM 5c, (4-Bromo-5-nitro-1H-pyrrol-2-yl)(3,5-dichloro-2-hydroxyphenyl)methanone]	7.6 ± 1.9 µM

same assay, conditions: ratio of IC50 of normal hTERT-RPE-1 to that of HCT116; first value of the cell

SMILES	C-SI (Cancer Selectivity Index), HCT116
O=C(c1cc(Cl)c([N+](=O)[O-])[nH]1)c1cc(Cl)cc(Cl)c1O [PM 5b, (4-Chloro-5-nitro-1H-pyrrol-2-yl)(3,5-dichloro-2-hydroxyphenyl)methanone]	3

system: MCF 7 breast cancer cell line; assay: MTT viability assay; assay type: cell-based; settings: Homo sapiens, MCF7, 48 h, MTT, 48 h of treatment
Description: as §2, §3

SMILES	IC50
O=C(c1cc(Cl)c([N+](=O)[O-])[nH]1)c1cc(Cl)cc(Cl)c1O [PM 5b, (4-Chloro-5-nitro-1H-pyrrol-2-yl)(3,5-dichloro-2-hydroxyphenyl)methanone]	28.8 ± 4.21 µM
O=C(c1cc(Br)c([N+](=O)[O-])[nH]1)c1cc(Cl)cc(Cl)c1O [PM 5c, (4-Bromo-5-nitro-1H-pyrrol-2-yl)(3,5-dichloro-2-hydroxyphenyl)methanone]	12 ± 2.85 µM

same assay, conditions: MTT, 48 h of treatment

SMILES	IC50
O=C(c1cc(Cl)c([N+](=O)[O-])[nH]1)c1cc(Cl)cc(Cl)c1O [PM 5b, (4-Chloro-5-nitro-1H-pyrrol-2-yl)(3,5-dichloro-2-hydroxyphenyl)methanone]	28.8 ± 4.2 µM
O=C(c1cc(Br)c([N+](=O)[O-])[nH]1)c1cc(Cl)cc(Cl)c1O [PM 5c, (4-Bromo-5-nitro-1H-pyrrol-2-yl)(3,5-dichloro-2-hydroxyphenyl)methanone]	12 ± 2.8 µM

same assay, conditions: ratio of IC50 of normal hTERT-RPE-1 to that of MCF 7; second value of the cell

SMILES	C-SI (Cancer Selectivity Index), MCF 7
O=C(c1cc(Cl)c([N+](=O)[O-])[nH]1)c1cc(Cl)cc(Cl)c1O [PM 5b, (4-Chloro-5-nitro-1H-pyrrol-2-yl)(3,5-dichloro-2-hydroxyphenyl)methanone]	1.9

system: hTERT RPE-1 immortalized retinal pigment epithelial cell line; assay: MTT viability assay (cytotoxicity on normal cells); assay type: cell-based; settings: hTERT-RPE1; MTT, 48 h of treatment, normal epithelial cells; read-out: IC50 hTERT-RPE-1
Description: as §2, §3

SMILES	IC50
O=C(c1cc(Cl)c([N+](=O)[O-])[nH]1)c1cc(Cl)cc(Cl)c1O [PM 5b, (4-Chloro-5-nitro-1H-pyrrol-2-yl)(3,5-dichloro-2-hydroxyphenyl)methanone]	55.4 ± 13.2 µM
O=C(c1cc(Br)c([N+](=O)[O-])[nH]1)c1cc(Cl)cc(Cl)c1O [PM 5c, (4-Bromo-5-nitro-1H-pyrrol-2-yl)(3,5-dichloro-2-hydroxyphenyl)methanone]	29.7 ± 5.7 µM

system: HCT116 and MCF 7 cancer cell lines; assay: MTT viability assay, statements over both cancer cell lines; assay type: cell-based; settings: MTT, 48 h challenge; group statement; read-out: IC50, regardless of the cancer cell line (HCT116, MCF 7)
Description: as §2, §3

SMILES	IC50
O=C(c1cc(Cl)c([N+](=O)[O-])[nH]1)c1cc(Cl)cc(Cl)c1O [PM 5b, (4-Chloro-5-nitro-1H-pyrrol-2-yl)(3,5-dichloro-2-hydroxyphenyl)methanone]	> 7 µM
O=C(c1cc(Br)c([N+](=O)[O-])[nH]1)c1cc(Cl)cc(Cl)c1O [PM 5c, (4-Bromo-5-nitro-1H-pyrrol-2-yl)(3,5-dichloro-2-hydroxyphenyl)methanone]	> 7 µM

same assay, conditions: mean of HCT116 and MCF 7 C-SI

SMILES	C-SI, mean value among the two cancer cell lines
O=C(c1cc(Cl)c([N+](=O)[O-])[nH]1)c1cc(Cl)cc(Cl)c1O [PM 5b, (4-Chloro-5-nitro-1H-pyrrol-2-yl)(3,5-dichloro-2-hydroxyphenyl)methanone]	2.5
O=C(c1cc(Br)c([N+](=O)[O-])[nH]1)c1cc(Cl)cc(Cl)c1O [PM 5c, (4-Bromo-5-nitro-1H-pyrrol-2-yl)(3,5-dichloro-2-hydroxyphenyl)methanone]	8

system: not given; assay: not given; settings: not given

SMILES	melting point
O=C(c1cc(Cl)c([N+](=O)[O-])[nH]1)c1cc(Cl)cc(Cl)c1O [PM 5b, (4-Chloro-5-nitro-1H-pyrrol-2-yl)(3,5-dichloro-2-hydroxyphenyl)methanone]	180 to 182 °C
O=C(c1cc(Br)c([N+](=O)[O-])[nH]1)c1cc(Cl)cc(Cl)c1O [PM 5c, (4-Bromo-5-nitro-1H-pyrrol-2-yl)(3,5-dichloro-2-hydroxyphenyl)methanone]	175 to 177 °C
